# Experimental data from ChEMBL document CHEMBL3792297, “Studies on phenothiazines: New microtubule-interacting compounds with phenothiazine A-ring as potent antineoplastic agents” (Bioorg Med Chem, 2016).
# Experiments:
# [1] = Growth inhibition of human SKOV3 cells after 48 hrs by SRB assay; assay type: functional; conditions: SK-OV-3, 48 h
# [2] = Growth inhibition of human OVCAR4 cells at 10 uM after 48 hrs by SRB assay relative to control; assay type: functional; conditions: OVCAR-4, 48 h, read-out: GI
# MDA-MB-468 = test: Growth inhibition of human MDA-MB-468 cells after 48 hrs by SRB assay; assay type: functional; conditions: MDA-MB-468, 48 h
# [3] = Growth inhibition of human OVCAR5 cells after 48 hrs by SRB assay; assay type: functional; conditions: OVCAR-5, 48 h
# KM12 = test: Growth inhibition of human KM12 cells at 10 uM after 48 hrs by SRB assay relative to control; assay type: functional; conditions: KM12, 48 h, read-out: GI
# [4] = Growth inhibition of human MOLT4 cells at 10 uM after 48 hrs by SRB assay relative to control; assay type: functional; conditions: MOLT-4, 48 h, read-out: GI
# Ovis aries = organism: Ovis aries; test: Inhibition of sheep brain tubulin polymerization at 100 uM by DAPI staining-based fluorimetric method
# MCF7 = test: Growth inhibition of human MCF7 cells after 48 hrs by SRB assay; assay type: functional; conditions: MCF7, 48 h
# [5] = Growth inhibition of human HCC2998 cells after 48 hrs by SRB assay; assay type: functional; conditions: HCC 2998, 48 h
# [6] = Growth inhibition of human SNB75 cells at 10 uM after 48 hrs by SRB assay relative to control; assay type: functional; conditions: SNB-75, 48 h, read-out: GI
# CCRF-CEM [7] = test: Growth inhibition of human CCRF-CEM cells at 10 uM after 48 hrs by SRB assay relative to control; assay type: functional; conditions: read-out: GI
# [8] = Growth inhibition of human UACC257 cells at 10 uM after 48 hrs by SRB assay relative to control; assay type: functional; conditions: UACC-257, 48 h, read-out: GI
# A498 = test: Growth inhibition of human A498 cells at 10 uM after 48 hrs by SRB assay relative to control; assay type: functional; conditions: A498, 48 h, read-out: GI
# [9] = Growth inhibition of human HOP92 cells after 48 hrs by SRB assay; assay type: functional; conditions: HOP-92, 48 h
# [10] = Growth inhibition of human MOLT4 cells after 48 hrs by SRB assay; assay type: functional; conditions: MOLT-4, 48 h
# [11] = Growth inhibition of human SNB75 cells after 48 hrs by SRB assay; assay type: functional; conditions: SNB-75, 48 h
# [12] = Growth inhibition of human NCI-ADR-RES cells at 10 uM after 48 hrs by SRB assay relative to control; assay type: functional; conditions: read-out: GI
# [13] = Growth inhibition of human LOXIMVI cells after 48 hrs by SRB assay; assay type: functional; conditions: LOX IMVI
# NCI-H460 = test: Growth inhibition of human NCI-H460 cells after 48 hrs by SRB assay; assay type: functional; conditions: NCI-H460, 48 h
# CCRF-CEM [14] = test: Growth inhibition of human CCRF-CEM cells after 48 hrs by SRB assay; assay type: functional
# [15] = Growth inhibition of human COLO205 cells after 48 hrs by SRB assay; assay type: functional; conditions: COLO 205, 48 h
# [16] = Growth inhibition of human SF295 cells after 48 hrs by SRB assay; assay type: functional; conditions: SF-295, 48 h
# [17] = Growth inhibition of human SW620 cells at 10 uM after 48 hrs by SRB assay relative to control; assay type: functional; conditions: SW-620, 48 h, read-out: GI
# SN12C [18] = test: Growth inhibition of human SN12C cells after 48 hrs by SRB assay; assay type: functional
# U-251 = test: Growth inhibition of human U251 cells after 48 hrs by SRB assay; assay type: functional; conditions: U-251, 48 h
# SK-MEL-5 [19] = test: Growth inhibition of human SK-MEL-5 cells after 48 hrs by SRB assay; assay type: functional; conditions: SK-MEL-5, 48 h
# [20] = Growth inhibition of human RXF393 cells at 10 uM after 48 hrs by SRB assay relative to control; assay type: functional; conditions: RXF 393, 48 h, read-out: GI
# [21] = Growth inhibition of human HL-60(TB) cells at 10 uM after 48 hrs by SRB assay relative to control; assay type: functional; conditions: HL-60, 48 h, read-out: GI
# SK-MEL-28 = test: Growth inhibition of human SK-MEL-28 cells after 48 hrs by SRB assay; assay type: functional; conditions: SK-MEL-28, 48 h
# SN12C [22] = test: Growth inhibition of human SN12C cells at 10 uM after 48 hrs by SRB assay relative to control; assay type: functional; conditions: read-out: GI
# [23] = Growth inhibition of human HCT15 cells at 10 uM after 48 hrs by SRB assay relative to control; assay type: functional; conditions: HCT-15, 48 h, read-out: GI
# 786-0 = test: Growth inhibition of human 786-0 cells after 48 hrs by SRB assay; assay type: functional; conditions: 786-0, 48 h
# MDA-MB-231 = test: Growth inhibition of human MDA-MB-231 cells at 10 uM after 48 hrs by SRB assay relative to control; assay type: functional; conditions: MDA-MB-231, 48 h, read-out: GI
# Malme-3M = test: Growth inhibition of human MALME-3M cells at 10 uM after 48 hrs by SRB assay relative to control; assay type: functional; conditions: read-out: GI
# [24] = Growth inhibition of human SF539 cells at 10 uM after 48 hrs by SRB assay relative to control; assay type: functional; conditions: SF-539, 48 h, read-out: GI
# [25] = Growth inhibition of human OVCAR3 cells after 48 hrs by SRB assay; assay type: functional; conditions: OVCAR-3, 48 h
# HT-29 = test: Growth inhibition of human HT-29 cells at 10 uM after 48 hrs by SRB assay relative to control; assay type: functional; conditions: HT-29, 48 h, read-out: GI
# SK-MEL-5 [26] = test: Growth inhibition of human SK-MEL-5 cells at 10 uM after 48 hrs by SRB assay relative to control; assay type: functional; conditions: SK-MEL-5, 48 h, read-out: GI
# K562 = test: Growth inhibition of human K562 cells after 48 hrs by SRB assay; assay type: functional; conditions: K562, 48 h
# [27] = Growth inhibition of human UACC62 cells after 48 hrs by SRB assay; assay type: functional; conditions: UACC-62, 48 h
# [28] = Growth inhibition of human Hs 578T cells at 10 uM after 48 hrs by SRB assay relative to control; assay type: functional; conditions: read-out: GI
# [29] = Growth inhibition of human HCT116 cells after 48 hrs by SRB assay; assay type: functional; conditions: HCT-116, 48 h
# [30] = Growth inhibition of human SF268 cells at 10 uM after 48 hrs by SRB assay relative to control; assay type: functional; conditions: SF-268, 48 h, read-out: GI
# [31] = Growth inhibition of human TK10 cells at 10 uM after 48 hrs by SRB assay relative to control; assay type: functional; conditions: TK-10, 48 h, read-out: GI
# SR = test: Growth inhibition of human SR cells at 10 uM after 48 hrs by SRB assay relative to control; assay type: functional; conditions: read-out: GI
# [32] = Growth inhibition of human RPMI8226 cells after 48 hrs by SRB assay; assay type: functional; conditions: RPMI-8226, 48 h
smiles,measurement,setting,value
COc1ccc(C(=O)N2c3ccccc3Sc3ccccc32)c(OC)c1,GI50,[1],715 nM
same,inhibition of growth at 10 µM,[2],43%
same,GI50,MDA-MB-468,327 nM
same,GI50,[3],10000 nM
same,inhibition of growth at 10 µM,KM12,86%
same,inhibition of growth at 10 µM,[4],88%
same,inhibition,Ovis aries,53%
same,GI50,MCF7,450 nM
same,GI50,[5],1490 nM
same,inhibition of growth at 10 µM,[6],82%
same,inhibition of growth at 10 µM,CCRF-CEM [7],83%
same,inhibition of growth at 10 µM,[8],23%
same,inhibition of growth at 10 µM,A498,95%
same,GI50,[9],374 nM
same,GI50,[10],447 nM
same,GI50,[11],209 nM
same,inhibition of growth at 10 µM,[12],100%
same,GI50,[13],601 nM
same,GI50,NCI-H460,406 nM
same,GI50,CCRF-CEM [14],394 nM
same,GI50,[15],333 nM
same,GI50,[16],484 nM
same,inhibition of growth at 10 µM,[17],75%
same,GI50,SN12C [18],586 nM
same,GI50,U-251,615 nM
same,GI50,SK-MEL-5 [19],408 nM
same,inhibition of growth at 10 µM,[20],100%
same,inhibition of growth at 10 µM,[21],99%
same,GI50,SK-MEL-28,942 nM
same,inhibition of growth at 10 µM,SN12C [22],48%
same,inhibition of growth at 10 µM,[23],81%
same,GI50,786-0,480 nM
same,inhibition of growth at 10 µM,MDA-MB-231,62%
same,inhibition of growth at 10 µM,Malme-3M,33%
same,inhibition of growth at 10 µM,[24],100%
same,GI50,[25],322 nM
same,inhibition of growth at 10 µM,HT-29,100%
same,inhibition of growth at 10 µM,SK-MEL-5 [26],81%
same,GI50,K562,381 nM
same,GI50,[27],321 nM
same,inhibition of growth at 10 µM,[28],85%
same,GI50,[29],452 nM
same,inhibition of growth at 10 µM,[30],63%
same,inhibition of growth at 10 µM,[31],44%
same,inhibition of growth at 10 µM,SR,78%
same,GI50,[32],523 nM
